“And” between values parts separate entries of the source, which are not always exact repeats. Equal entries are not always repeated.
Legend:
HPV-11 [1] = experiment: Prophylactic (topical microbicide) activity: human grafts exposed to CTC-96 for 1 hour, washed, then exposed to HPV-11; xenograft in the SCID mouse; assay type: in vivo
Method: Given the virucidal activity of CTC-96™, a series of experiments was performed to evaluate the prophylactic activity of the compound under conditions resembling that of the use of a topical microbicide. When using a topical microbicide the target organ is first exposed to the microbicide before exposure to the virus. Various concentrations of CTC-96™ were evaluated in a model of HPV-11-infected human xenograft in the SCID mouse. The human grafts were exposed to CTC-96™ for 1 hour prior to exposure to HPV-11 and engraftment. Because CTC-96™ is virucidal, it was washed off the foreskin fragments before exposure to the virus. The HPV-11-infected grafts were allowed to grow for 12 weeks. After 12 weeks, the animals were sacrificed and the grafts recovered, measured and processed. Graft size, expressed as the composite geometric mean diameter of the two grafts borne by the animal, was the primary endpoint. Histology of the grafts was examined for the presence of HPV. Grafts were also processed for detection of HPV-11 mRNAs transcripts by reverse transcriptase-polymerase chain reaction (RT-PCR).
Grafts that are not infected by HPV proliferate poorly and tend to be eliminated by the mouse's host defenses as a foreign body. The residual fibrous tissue is a scar. In order to analyze the results properly, grafts that were truly negative (graft showing a healthy human epithelium) as well as those showing a foreign body reaction or fibrous tissue were counted as negative for HPV.
Table 7 summarizes the immunocytochemistry results for the presence of HPV capsid antigen in the grafts. As the concentration of CTC-96™ increases, the number of grafts displaying either fibrous tissue or a foreign body reaction also increases. […] Again, a strong microbicidal effect of CTC-96™ is observed.

[2] = system: Bovine Papillomavirus Type 1 (BPV-1); experiment: Inhibition of BPV-1 transformation of C127 mouse epithelial cells: exposure of virus to drug prior to infection; assay type: cell-based; conditions: duplicate values
Method: Experiments were performed to determine if CTC-96™ can inactivate the ability of bovine papillomavirus type 1 (BPV-1) to morphologically transform C127 mouse epithelial cells in culture. Cell-free stocks of BPV-1 were treated with CTC-96™ or placebo. In order to detect the transforming ability of BPV-1, sub-confluent cultures of C127 mouse cells are infected with a standardized inoculate of BPV-1. For the positive controls, stock virus was added to the culture medium present on the cells. The presence of morphologically transformed foci was counted after 2 weeks and then again at 3 weeks. Controls included non-infected cells (with or without drug) and untreated BPV-1.
Bovine Papillomavirus Type 1 (BPV-1) was mixed with CTC-96™, incubated for 10 minutes at 37° C. and then added to the cells. It is clear that CTC-96™ can inhibit the appearance of bovine Papillomavirus type 1 (BPV-1) induced transformation of C127 mouse epithelial cells in culture (Table 9).

HPV-11 [3] = experiment: Therapeutic activity of CTC-96 ointment on human condylomas induced by HPV-11, HPV-11-infected external human xenograft SCID mouse model; assay type: in vivo, SCID mice; conditions: for Graft Size Growth, Means ± SD: thrice a week for 6 weeks on the graft
Method: Two different dose levels of CTC-96™ (1%, 0.1%) in an ointment formulation and the vehicle alone were evaluated. SCID mice were grafted on each side of the dorsum with an HPV-11-infected foreskin fragment. The HPV-11-infected grafts were left to grow for 6 weeks before treatment was started and continued for 6 weeks. During the treatment phase, the drug was administered thrice a week, directly on the graft. Graft length, width, and height were measured every two weeks during the treatment phase. At the end of the study, the animals were sacrificed. The grafts were measured, recovered, and processed for histology. HPV infection in tissue sections is defined by the presence of two out of three of the following features: acanthosis, koilocytosis, or parakeratosis.
The Graft Size Growth (GSG) index was our primary endpoint in this evaluation of CTC-96™. […] However, there is also a marked increase in the variance of the GSG in the high dose CTC-96™ group.
In our analysis, to measure graft size growth we used a composite index that summarizes for each mouse the growth of the two grafts borne by the animal, each from a different foreskin donor. If instead we look at the growth of each individual graft, we can see that the means, medians, or variances of the graft size growth are more alike among the three treatment groups as shown in FIG. 1. The ANOVA fails to show a treatment effect on the growth of the individual grafts.

SMILES: CC(/C=C(/C)[O-])=NCCN=C(C)/C=C(/C)[O-].Cc1ncc[nH]1.Cc1ncc[nH]1.[Br-].[Co+3] [CTC-96]
- Histology: grafts Negative for HPV (percent) (HPV-11 [1]; CTC-96 0.05%): 30%
- Histology: grafts Positive for HPV (number) (HPV-11 [1]; CTC-96 0.05%): 16
- Histology: grafts Positive for HPV (percent) (HPV-11 [1]; CTC-96 0.05%): 73%
- Immunocytochemistry (HPV capsid antigen): grafts Negative (percent) (HPV-11 [1]; CTC-96 0.05%): 48%
- Immunocytochemistry (HPV capsid antigen): grafts Positive (number) (HPV-11 [1]; CTC-96 0.05%): 12
- Immunocytochemistry (HPV capsid antigen): grafts Positive (percent) (HPV-11 [1]; CTC-96 0.05%): 52%
- RT-PCR (HPV-11 mRNA): grafts Negative (number) (HPV-11 [1]; CTC-96 0.05%): 9
- RT-PCR (HPV-11 mRNA): grafts Negative (percent) (HPV-11 [1]; CTC-96 0.05%): 39%
- RT-PCR (HPV-11 mRNA): grafts Positive (number) (HPV-11 [1]; CTC-96 0.05%): 14
- RT-PCR (HPV-11 mRNA): grafts Positive (percent) (HPV-11 [1]; CTC-96 0.05%): 61%
- Immunocytochemistry (HPV capsid antigen): grafts Negative (number) (HPV-11 [1]; CTC-96 0.05%, foreign body/fibrous counted as negative): 11
- Histology: grafts Negative for HPV (number) (HPV-11 [1]; CTC-96 0.2%): 14
- Histology: grafts Negative for HPV (percent) (HPV-11 [1]; CTC-96 0.2%): 67%
- Histology: grafts Positive for HPV (number) (HPV-11 [1]; CTC-96 0.2%): 7
- Histology: grafts Positive for HPV (percent) (HPV-11 [1]; CTC-96 0.2%): 33%
- Immunocytochemistry (HPV capsid antigen): grafts Negative (number) (HPV-11 [1]; CTC-96 0.2%): 15
- Immunocytochemistry (HPV capsid antigen): grafts Negative (percent) (HPV-11 [1]; CTC-96 0.2%): 71%
- Immunocytochemistry (HPV capsid antigen): grafts Positive (number) (HPV-11 [1]; CTC-96 0.2%): 6
- Immunocytochemistry (HPV capsid antigen): grafts Positive (percent) (HPV-11 [1]; CTC-96 0.2%): 29%
- RT-PCR (HPV-11 mRNA): grafts Negative (number) (HPV-11 [1]; CTC-96 0.2%): 17
- RT-PCR (HPV-11 mRNA): grafts Negative (percent) (HPV-11 [1]; CTC-96 0.2%): 81%
- RT-PCR (HPV-11 mRNA): grafts Positive (number) (HPV-11 [1]; CTC-96 0.2%): 4
- RT-PCR (HPV-11 mRNA): grafts Positive (percent) (HPV-11 [1]; CTC-96 0.2%): 19%
- Histology: grafts Negative for HPV (number) (HPV-11 [1]; CTC-96 1%): 22
- Histology: grafts Negative for HPV (percent) (HPV-11 [1]; CTC-96 1%): 100%
- Histology: grafts Positive for HPV (number) (HPV-11 [1]; CTC-96 1%): 0
- Histology: grafts Positive for HPV (percent) (HPV-11 [1]; CTC-96 1%): 0%
- Immunocytochemistry (HPV capsid antigen): grafts Negative (number) (HPV-11 [1]; CTC-96 1%): 22
- Immunocytochemistry (HPV capsid antigen): grafts Negative (percent) (HPV-11 [1]; CTC-96 1%): 100%
- Immunocytochemistry (HPV capsid antigen): grafts Positive (number) (HPV-11 [1]; CTC-96 1%): 0
- Immunocytochemistry (HPV capsid antigen): grafts Positive (percent) (HPV-11 [1]; CTC-96 1%): 0%
- RT-PCR (HPV-11 mRNA): grafts Negative (number) (HPV-11 [1]; CTC-96 1%): 14
- RT-PCR (HPV-11 mRNA): grafts Negative (percent) (HPV-11 [1]; CTC-96 1%): 78%
- RT-PCR (HPV-11 mRNA): grafts Positive (number) (HPV-11 [1]; CTC-96 1%): 4
- RT-PCR (HPV-11 mRNA): grafts Positive (percent) (HPV-11 [1]; CTC-96 1%): 22%
- Graft size (composite geometric mean diameter) versus control, FIG. 2 (HPV-11 [1]; all CTC-96 concentrations, 12 weeks): dramatic and highly statistically significant microbicidal effect
- Histology: grafts Negative for HPV (number) (HPV-11 [1]; grafts pre-exposed to CTC-96 0.05%, foreign body/fibrous counted as negative): 7
- Number of Transformed Foci at 3 weeks ([2]; CTC-96 0.1 mg/ml mixed with BPV-1, 10 minutes at 37° C.): 68 and 80
- Number of Transformed Foci at 3 weeks ([2]; CTC-96 0.2 mg/ml mixed with BPV-1, 10 minutes at 37° C.): 80 and 82
- Number of Transformed Foci at 3 weeks ([2]; CTC-96 0.5 mg/ml mixed with BPV-1, 10 minutes at 37° C.): 25 and 40
- Graft Size Growth, Median (HPV-11 [3]; CTC-96 0.1% ointment): 60.51%
- Graft Size Growth, Means ± SD (HPV-11 [3]; CTC-96 0.1% ointment): 64.53 ± 41.92%
- Graft Size Growth, Median (HPV-11 [3]; CTC-96 1% ointment): 52.03%
- Graft Size Growth, Means ± SD (HPV-11 [3]; CTC-96 1% ointment): 91.39 ± 127.84%
- Effect on the growth of HPV-11-induced papillomas (HPV-11 [3]; mouse, in vivo): no detectable effect

— patent US20070142348A1, “Microbicidal, prophylactic and therapeutic effect of ctc-96 on papilloma viruses” (REDOX PHARMACEUTICAL CORPORATION, AUDUBON […] AND […], priority 2003, published 2007)
